According to PubChem BioAssay (NCI):
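Results reflect a 48-hour exposure of cells in 96-well plates to compound at five concentrations. GI50 is the concentration that inhibits growth by half. Definition used: TGI = concentration required for complete inhibition of growth.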

Tests used:
Experiment in all cases: NCI anticancer screen, dose series, 48 h
MCF7 breast = test system: MCF7 breast
SN12C renal = test system: SN12C renal
SR leukemia = test system: SR leukemia
HCT-15 colon = test system: HCT-15 colon
SK-MEL-5 melanoma = test system: SK-MEL-5 melanoma
KM12 colon = test system: KM12 colon
MDA-N = test system: MDA-N
M14 melanoma = test system: M14 melanoma
SNB-75 CNS = test system: SNB-75 CNS
A498 renal = test system: A498 renal

Row | SMILES | TGI (MCF7 breast) [µM] | TGI (SN12C renal) [µM] | TGI (SR leukemia) [µM] | TGI (HCT-15 colon) [µM] | TGI (SK-MEL-5 melanoma) [µM] | TGI (KM12 colon) [µM] | TGI (MDA-N) [µM] | TGI (M14 melanoma) [µM] | TGI (SNB-75 CNS) [µM] | TGI (A498 renal) [µM] | GI50 (SN12C renal) [µM]
1 | O=C(CCCCCNC(=O)c1ccc(Cl)cc1)NO | > 100 | 24.4 | 53.7 | > 100 | 13.9 | > 100 | 10.8 | > 100 | 30.8 | – | –
2 | O=c1c(O)c(-c2ccccc2)oc2c(CP(=O)(O)O)cccc12 | > 100 | > 100 | > 100 | > 100 | > 100 | – | > 100 | > 100 | – | > 100 | –
3 | O=S(=O)(O)c1ccc(O)c(N=Nc2c(O)ccc3ccccc23)c1 | – | > 100 | – | > 100 | > 100 | > 100 | > 100 | > 100 | > 100 | > 100 | –
4 | NS(=O)(=O)c1nnc(NS(=O)(=O)c2cccc3cccnc23)s1 | > 100 | > 100 | > 100 | > 100 | > 100 | > 100 | > 100 | > 100 | – | > 100 | –
5 | COc1cc(C2c3cccc4cccc(c34)C3CCC(=O)N32)cc(OC)c1O (configuration not stated) | > 50 | > 50 | > 50 | > 50 | – | > 50 | > 50 | > 50 | > 50 | > 50 | –
6 | C=CC(=O)N1C/C(=C\c2ccc(OC)cc2)C(=O)/C(=C/c2ccc(OC)cc2)C1 | 5.01 | 6.83 | > 100 | 4.23 | > 20.4 | 5.22 | – | 4.78 | 27.3 | 3.54 | –
7 | Cc1cn(C2CC(O)C(Cn3nncc3Cn3nc(Br)c(=O)[nH]c3=O)O2)c(=O)[nH]c1=O (configuration not stated) | > 100 | > 100 | > 100 | > 100 | > 100 | > 100 | > 100 | > 100 | – | > 100 | –
8 | CCOC(=O)Cc1[nH]c(C(=O)c2ccccc2)cc1C(=O)c1ccccc1 | > 10 | > 100 | > 100 | > 100 | > 100 | > 100 | – | > 100 | > 100 | > 100 | –
9 | CC1CN(c2cc3c(cc2F)c(=O)c(C(=O)O)cn3-c2ccc(N3CCN(C)CC3)cn2)CC(C)N1 (configuration not stated) | > 100 | > 100 | > 100 | > 100 | – | > 100 | > 100 | > 100 | > 100 | > 100 | –
10 | CCCCCCc1ccc(CCCCCCCC(=O)O)o1 | > 100 | > 100 | > 100 | > 100 | > 100 | > 100 | > 100 | > 100 | > 100 | – | –
11 | Cc1ccc(/C=c2\c(=O)[nH]c3nc4ccccc4c(=O)n23)cc1 | > 100 | > 100 | – | > 100 | – | > 100 | 62.2 | > 100 | 75.6 | – | –
12 | COc1cc2c3c(n(C)c(=O)c2cc1OC)-c1cc2c(cc1/C3=C\CCCCl)OCO2 | > 100 | > 100 | – | > 100 | 70.6 | 70.1 | > 100 | > 100 | 32.2 | 80.7 | > 100
13 | N#CC1=C(O)NC(O)=C(C#N)C1c1c(Cl)cccc1Cl | – | > 100 | > 100 | 51.9 | > 100 | 71.5 | – | > 100 | 48.4 | 64.5 | –
14 | O=S(=O)(O)c1cc(S(=O)(=O)O)c2cc(N=Nc3ccc(N=Nc4ccc(/C=C/c5ccc(N=[N+]([O-])c6ccc(/C=C/c7ccc(N=Nc8ccc(N=Nc9ccc%10cc(S(=O)(=O)O)cc(S(=O)(=O)O)c%10c9)cc8)cc7S(=O)(=O)O)c(S(=O)(=O)O)c6)cc5S(=O)(=O)O)c(S(=O)(=O)O)c4)cc3)ccc2c1 | > 100 | > 100 | – | > 100 | > 100 | > 100 | – | – | > 100 | > 100 | –
15 | C=C1c2c(n(S(=O)(=O)c3ccccc3)c3ccccc23)[C@@]2(C(=O)OC)CC3C=CC2N1C3 | > 100 | > 100 | – | > 100 | – | > 100 | > 100 | > 100 | > 100 | – | –
16 | Clc1nc2nc(N3CCNCC3)nc(N3CCCC3)c2[nH]1 | 32.2 | 34.4 | 38.7 | 35.3 | 28.8 | 35.9 | 32.1 | 34.6 | 36 | – | –
17 | [N-]=[N+]=Nc1cc(=O)[nH]c2ccccc12 | > 100 | > 100 | > 100 | – | > 100 | > 100 | > 100 | > 100 | > 100 | – | –
18 | Cc1nc(N)c(N2CCN(S(=O)(=O)N(Cc3ccccc3)Cc3ccccc3)CC2)c(=O)[nH]1 | > 100 | 80.7 | > 100 | > 100 | – | > 100 | > 100 | > 100 | 28.6 | – | –
19 | CC1(C)CC(=O)c2c(N)n[nH]c2C1 | > 100 | > 100 | > 100 | – | > 100 | > 100 | > 100 | > 100 | > 100 | > 100 | –
20 | COC1(OC)CC(CO)(COc2cc(Cl)nc(N)n2)C1 | > 100 | > 100 | – | > 100 | > 100 | > 100 | > 100 | – | > 100 | – | –
21 | Cc1cnc2c(c1)C(=O)N(c1ccc(Oc3ccccc3)cc1)S2(=O)=O | > 100 | > 100 | > 100 | > 100 | > 100 | > 100 | > 100 | > 100 | > 100 | – | –
22 | O=C(O)c1cc(NCc2cc(O)ccc2O)ccc1O | > 100 | > 100 | – | > 100 | > 100 | > 100 | 55.1 | > 100 | > 100 | > 100 | –
23 | CC(C)(C)OC(=O)N1C(=O)C2CCCC21 (configuration not stated) | – | > 100 | > 100 | > 100 | > 100 | > 100 | – | > 100 | > 100 | > 100 | –
24 | CC(C)OC1=C(CC2(C)OCCO2)C(=O)C12OCCO2 | > 100 | > 100 | – | > 100 | > 100 | > 100 | – | > 100 | > 100 | > 100 | –
